Test results as given in patent US20180044343A1, “BICYCLIC IMIDAZOLO DERIVATIVE” (Sumitomo Dainippon Pharma Co., Ltd., priority 2015, published 2018).

What was measured:
[1] = target: T1, PDE1C (Homo sapiens, UniProt Q14123); test: In vitro HTRF PDE1 inhibition assay (PDE1C); type: biochemical; details: 100 nM cyclic GMP
Source text: (§1) An exemplary procedure for the in vitro Homogenous Time Resolved Fluorescence assay, which can be used to determine the inhibitory action of compounds of the present invention toward PDE1 or its isoforms, follows.
(§2) The HTRF PDE1 assay utilized the HTRF (Homogenous Time Resolved Fluorescence) technology, which is based on the competition between unlabeled cyclic nucleotide and cyclic nucleotide labeled with XL665 for the binding to cyclic nucleotide-specific antibody labeled with cryptate. The HTRF signal is thus inversely proportional to the concentration of cyclic nucleotide being measured. Since phosphodiesterases break down cyclic nucleotides, the HTRF signal was used to determine PDE activity.
(§3) The Cisbio cGMP HTRF assay kit (Cat no: 62GM2PEC) was utilized. Cyclic GMP was diluted to 200 nM in HTRF assay buffer (1 mM CaCl2, 10 mM MgCl2, 10 mM Tris-HCl, 0.1% BSA, pH 7.4). 10 μl of compound or DMSO was diluted in 200 nM cyclic GMP solution and added to wells of a 96 well white plate to give 100 nM cyclic GMP in 1% DMSO final concentration. PDE (1A3, 1B or 1C) was diluted to 2× working concentration in HTRF assay buffer with 2 μg/ml Calmodulin, and 10 μl was added to initiate the reaction. The plate was then incubated for 45 minutes at 27° C. d2-Labelled cyclic GMP and anti-cGMP cryptate were diluted in 50 mM phosphate buffer, 0.8 M KF, 1% Triton X100, 0.2% BSA, pH 7.0. Following incubation 10 μl d2-cGMP, then 10 μl anti cGMP cryptate were added to each well and the plate was incubated for 60 minutes at room temperature. The plate was then read on Perkin Elmer EnVision at 2 different FRET readings ex/em 340 nm/665 nm and 340 nm/615 nm.
(§4) Compounds having an IC50 of <1 μM are denoted as +++. Compounds having an IC50 of 1-10 μM are denoted as ++. Compounds having an IC50 of 10-100 μM are denoted as +.

[2] = target: T2, PDE1A3 (Homo sapiens, UniProt P54750); test: In vitro SPA PDE1 inhibition assay (PDE1A3); type: biochemical; details: PDE1A3, [3H]-cGMP 100 nM
Experimental: (§5) The commercially available Scintillation Proximity Assay (SPA) system (Perkinelmer) was used for PDE1 inhibition assays. SPA Yttrium Silicate beads preferentially binds to non-cyclic GMP compared to cyclic GMP (cGMP) in the presence of zinc sulphate, which enables to measure the amount of enzyme reaction product ([^3H]-GMP) by scintillation counting.
(§6) For PDE1 inhibition assay, 10 μl of the test compounds in 5% dimethyl sulfoxide diluted in SPA assay buffer (1 mM CaCl2, 10 mM MgSO4, 10 mM Tris-HCl, pH 7.4) were placed in a 96-well white microtiter plate, and 20 μl of [^3H]-cGMP solution (100 nM final concentration, Perkinelmer) in SPA assay buffer was added. Assays were initiated by adding 20 μl of PDE (1A3, 1B or 1C) enzyme solution including calmodulin (final concentration 1 μg/ml). After 30 min incubation at 27° C., the reaction was stopped by the addition of 50 μl of a suspension of 10 mg/ml SPA beads in 18 mM ZnSO4. The microtiter plates were settled for 60 min, and then were measured in a TopCount NXT scintillation counter (PerkinElmer). IC50 values were determined from sigmoidal curves by plotting the percentage of PDE activity versus log compound concentration. IC50 was defined as the concentration of the test compounds required to inhibit the cyclic nucleotide hydrolyzing activities of tested PDEs by 50%.

[3] = target: T1, PDE1C; test: In vitro SPA PDE1 inhibition assay (PDE1C); type: biochemical; details: [3H]-cGMP 100 nM
Experimental: as §5, §6

[4] = target: T3, PDE1B (Homo sapiens, UniProt Q01064); test: In vitro SPA PDE1 inhibition assay (PDE1B); type: biochemical; details: [3H]-cGMP 100 nM
T3 sequence (Q01064 whole entry): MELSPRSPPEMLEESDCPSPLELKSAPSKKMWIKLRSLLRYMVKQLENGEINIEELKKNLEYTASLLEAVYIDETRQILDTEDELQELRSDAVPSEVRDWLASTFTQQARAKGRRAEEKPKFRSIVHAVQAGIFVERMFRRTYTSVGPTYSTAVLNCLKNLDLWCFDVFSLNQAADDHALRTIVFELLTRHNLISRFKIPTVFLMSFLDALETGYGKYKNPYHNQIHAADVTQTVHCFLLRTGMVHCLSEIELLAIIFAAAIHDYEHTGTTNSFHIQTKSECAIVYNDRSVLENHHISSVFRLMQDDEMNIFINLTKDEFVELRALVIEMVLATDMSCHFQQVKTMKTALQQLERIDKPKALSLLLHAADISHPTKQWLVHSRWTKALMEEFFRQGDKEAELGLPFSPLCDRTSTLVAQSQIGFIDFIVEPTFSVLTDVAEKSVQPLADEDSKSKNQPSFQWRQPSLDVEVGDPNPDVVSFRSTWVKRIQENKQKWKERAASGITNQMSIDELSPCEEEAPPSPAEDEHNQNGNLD
Experimental: as §5, §6

[5] = target: T2, PDE1A3; test: In vitro HTRF PDE1 inhibition assay (PDE1A3); type: biochemical; details: PDE1A3, 100 nM cyclic GMP
Source text: as §1, §2, §3, §4

[6] = Evaluation of bioavailability, PK test in rats; type: in vivo; details: rat; 7 week-old SD rats, intravenous vs oral administration, plasma LC-MS
Experimental: This test can be used to assess pharmacokinetics of the compounds of the present invention. Each compound of the invention was administered to 7 week-old SD rats intravenously with a solution in saline: 0.1N HCl=9:1 or orally with a 0.5% suspension in methyl cellulose, and each blood sample was collected at an appropriate interval as follows:
5, 15, and 30 minutes, and 1, 2, 4, 6, and 24 hours after intravenous administration
15 and 30 minutes, and 1, 2, 4, 6, and 24 hours after oral administration
The plasma was obtained from each blood, and the concentration of each compound in the plasma was measured with an LC-MS to calculate each pharmacokinetic parameter based on the concentration change.

[7] = tested on: cognitive dysfunction in PCP-treated rats; test: Novel object recognition test in rats repeatedly treated with phencyclidine (PCP); type: in vivo; details: rats given PCP 3 mg/kg i.p. twice a day for 10 days; compound 1 or 3 mg/kg orally 60 minutes before test; compared to PCP+vehicle group
Experimental: Since an N-Methyl-D-aspartate receptor antagonist phencyclidine (PCP) has been known to cause schizophrenia-like symptoms including cognitive dysfunction in humans, PCP-treated animals have been widely used as a schizophrenic animal model. Using rats to which PCP was repeatedly administered as a schizophrenic animal model, the improvement in cognitive dysfunction with the compounds of the invention was evaluated in the novel object recognition test. Rats were habituated to the test environment which is a box (50 cm×50 cm×35 cm) with no object inside for 1 hour per day for 3 days. On the test day, rats were again put into the test box with no object inside to habituate themselves for three minutes. The rats were then put into the test box with two identical objects inside and were made to explore inside for three minutes for a training trial. After one minute, they were put into the test box with one of the objects (i.e., the familiar object) that was the same as used in the training trial and another object (i.e., a novel object) inside and were made to explore inside for three minutes for a test trial. Cognitive function was evaluated on the basis of preference for the novel object in the test trial utilizing rats' habit of exploring a novel object longer than a familiar object. Discrimination Index was calculated from the following equation as an index for preference of a novel object.
Discrimination Index=(Time to explore novel object−Time to explore familiar object)/(Time to explore novel object+Time to explore familiar object)

[8] = target: T3, PDE1B; test: In vitro HTRF PDE1 inhibition assay (PDE1B); type: biochemical; details: in vitro PDE1B HTRF Assay; read-out: IC50
[9] = Test for drug transportation to brain in rats; type: in vivo; details: rat; SD rats, oral, one hour after administration; non-binding drug concentration ratio between brain and plasma
Source text: Test for Drug Transportation to Brain in Rats
This test can be used to assess transportation of the compounds of the present invention to the brain. Each compound of the invention was orally administered to 7 week-old SD rats with a 0.5% suspension in methyl cellulose, and each plasma and brain were collected one hour after administration to measure the concentration of each compound in the plasma and the brain with an LC-MS.
Each protein binding ratio of the compounds in the plasma and the brain was measured by the equilibrium dialysis method.
The obtained concentrations and protein binding ratios of the compounds in the plasma and the brain can be applied to the following equation to calculate Kp, uu, brain (i.e., non-binding drug concentration ratio between brain and plasma).
Kp, uu, brain=[Compound concentration in brain×(100−Protein binding ratio in brain (%))/100]/[Compound concentration in plasma×(100−Protein binding ratio in plasma (%))/100]

Compound | IC50 [1] [µM] | IC50 [2] [µM] | IC50 [3] [µM] | IC50 [4] [µM] | IC50 [5] [µM] | bioavailability [6] [%] | Discrimination Index in novel object recognition test [7] | IC50 [8] [nM] | Kp uu at 1 h [9]
CCn1c(OCC2CCC(F)(F)CC2)nn2c(C3CCOCC3)ncc2c1=O [Example 1] | < 1 | 0.22 | 0.665 | 0.088 | < 1 | 23.3 | significant increase | < 1000 | 0.69
COc1nn2c(C3CCOCC3)ncc2c(=O)n1Cc1ccc(Cl)cc1 [Example 109, 3-(4-chlorobenzyl)-2-methoxy-7-(tetrahydro-2H-pyran-4-yl)imidazo[5,1-f][1,2,4]triazin-4(3H)-one] | < 1 | 0.023 | 0.057 | 0.028 | < 1 | – | – | < 1000 | 1.02
Cn1c(OC[C@H]2CC[C@H](C(F)(F)F)CC2)nn2c(C3CCOCC3)ncc2c1=O [Example 245, 3-methyl-7-(tetrahydro-2H-pyran-4-yl)-2-{[trans-4-(trifluoromethyl)cyclohexyl]methoxy}-imidazo[5,1-][1,2,4]triazin-4(3H)-one] | < 1 | 0.113 | 0.547 | 0.036 | < 1 | 30.4 | significant increase | < 1000 | 0.72
COc1nn2c(C3CCOCC3)ncc2c(=O)n1C[C@H]1CC[C@@H](OC)CC1 [Example 101] | < 1 | 0.121 | 0.192 | 0.096 | < 1 | – | – | < 1000 | –
Cn1c(OCc2ccc(F)cc2)nn2c(C3CCOCC3)nc(F)c2c1=O [Example 116, 5-Fluoro-2-[(4-fluorobenzyl)oxy]-3-methyl-7-(tetrahydro-2H-pyran-4-yl)imidazo[5,1-f][1,2,4]triazin-4(3H)-one] | < 1 | 0.207 | 0.771 | 0.084 | < 1 | – | – | < 1000 | –
COc1nn2c(C3CCOCC3)ncc2c(=O)n1CC1CCC(F)(F)CC1 [Example 115, 3-[(4,4-difluorocyclohexyl)methyl]-2-methoxy-7-(tetrahydro-2H-pyran-4-yl)imidazo[5,1-][1,2,4]triazin-4(3H)-one] | < 1 | 0.034 | 0.065 | 0.033 | < 1 | 13.4 | significant increase | < 1000 | 0.96
